Data on one substance can be found in patent publication US9943485B2, “Bioactive compounds protection method and compositions containing the same” (priority 2003, dated 2018).

Experiment [1] can be described thus: Effects of dietary insulin in milk replacer on weight gain in bovine neonates. It counts as in vivo, Friesy and Charole' calves. The settings on record: calves, 600 MicroUnits insulin/cc of liquid milk replacer. An excerpt: 100 Friesy and Charole' calves in ages 12-15 days from birth, were used. Each calf received a milk replacer, of up to 6 liters a day, until the 37th day from birth. From the 37th day, milk replacer quantity was reduced by 0.5 liters every 2 days while simultaneously, pellet quantity increased, until the calf's 57 days old, when it is considered fully weaned. Calves in the experimental group receive 600 MicroUnits/cc. of liquid milk replacer. Calves in the control group receive no insulin at all. Daily growth in grams per each 1 Kg. of birth weight was measured and calculated for each calf.

Experiment [2] in a line: Effects of feed formula enriched with encapsulated insulin on lambs' weight gain, disease incidence and death rate. It counts as in vivo, Assaf specie lambs. The settings on record: one study. From the text:
More than 1,000 Assaf specie lambs over a period of 12 months at the age of 2-3 days from birth, were used. The growing period was divided into two periods: 3-28 days from birth, during which the lambs were exclusively fed by a milk replacer; and 29-75 days from birth, during which the lambs were fed by post-weaning mix/mash. Lambs in the study groups received between 600 MicroUnits-3,000 MicroUnits of insulin/ml. of milk replacer, and between 1,600 MicroUnits-5,000 MicroUnits of insulin/gr. of mix/mash.
A liquid blend, of 4 Kilograms of Maltodextrin, 40 Liters of Saline 0.9% and 100,000 IU (International Units) of insulin was blended (e.g., 25 IU insulin per 1 g of Maltodextrin). The liquid blend was then freeze-dried. The product of the process was maltodextrin encapsulated insulin. 97% of the bioactive properties of the insulin were maintained after the freeze-drying process. A premix of 10 Kg. was prepared from standard milk powder and the maltodextrin encapsulated insulin. The premix was then blended with 740 Kg. of standard milk replacer product, to generate 750 Kg. of insulin enriched commercial milk replacer.

On to insulin, for which the “average daily weight growth in grams per each Kg. of birth weight” value in experiment [1] (at the end of the study period) worked out at 22.47 g/Kg birth weight. For the same substance, the “more weight gained compared with the control group” value in experiment [1] (between day 17 and day 67 after birth) is “up to 26%”. In experiment [2] (insulin fed group started with 70 newly born lambs, 150 days after birth), the “lambs survived at marketing” value stood at 68 lambs. This substance also displayed a death rate in experiment [2] (insulin fed group, 70 lambs, at marketing (150 days after birth)) of 2.8%. Further, the “death rate lower compared with the control group” value in experiment [2] (insulin-fed group 2.8% vs control 11.6% death rate) is on record as 74.8%.
